From PubChem BioAssay (NCI)
Several values for one entry are separate records, joined by “and”; a condition that tells them apart may be missing. Identical values can stand only once.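 Where inhibition never reached the appropriate level, the endpoint shown equals the highest concentration tested. Otherwise, values were interpolated linearly from a five-concentration, 48-hour dose response in 96-well plates. Here, GI50 denotes the concentration required for 50% inhibition of growth. TGI is the concentration that stops growth completely.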

How the values were obtained:
Test in all cases: NCI anticancer screen, dose series, 48 h
786-0 renal = system: 786-0 renal
A498 renal = system: A498 renal
HCT-15 colon = system: HCT-15 colon
NCI-H226 lung = system: NCI-H226 lung
OVCAR-5 ovarian = system: OVCAR-5 ovarian
OVCAR-8 ovarian = system: OVCAR-8 ovarian
SF-539 CNS = system: SF-539 CNS
SNB-75 CNS = system: SNB-75 CNS
TK-10 renal = system: TK-10 renal
UACC-257 melanoma = system: UACC-257 melanoma

| SMILES | TGI (786-0 renal) | TGI (A498 renal) [µM] | TGI (HCT-15 colon) [µM] | TGI (NCI-H226 lung) | TGI (OVCAR-5 ovarian) [µM] | TGI (OVCAR-8 ovarian) | TGI (SF-539 CNS) | TGI (SNB-75 CNS) | TGI (TK-10 renal) | TGI (UACC-257 melanoma) | GI50 (A498 renal) | GI50 (HCT-15 colon) | GI50 (OVCAR-5 ovarian) | GI50 (OVCAR-8 ovarian) | GI50 (SNB-75 CNS) | GI50 (TK-10 renal) |
| --- | --- | --- | --- | --- | --- | --- | --- | --- | --- | --- | --- | --- | --- | --- | --- | --- |
| C/C(=N\NC(N)=O)C(CN1CCCCC1)C(c1ccccc1)c1c(O)c2ccccc2oc1=O (stereo unspecified) | > 59.5 µM | > 100 | > 100 | > 100 µM | > 100 | > 100 µM | > 100 µM | > 100 µM | > 100 µM | > 100 µM | – | – | – | – | – | – |
| CC(CCC(=O)O)[C@H]1CCC2[C@H]3C(CC[C@@]21C)[C@@]1(C)CCC(O)C[C@H]1C[C@@H]3O (stereo partly specified) | > 100 µM | > 100 | > 100 | > 100 µM | > 100 | > 100 µM | > 100 µM | > 100 µM | > 100 µM | > 100 µM | – | – | – | – | – | – |
| C/C(=C/CO[Si](C)(C)C(C)(C)C)C(=O)N(C)c1ccccc1I | 31.7 µM | 31 | 34.5 | 32.4 µM | 27.8 | 32.2 µM | 32.3 µM | 33.4 µM | 33.3 µM | 26.4 µM | – | – | – | – | – | – |
| O=C(O)/C=C(/CC(=O)O)C(=O)O | 33.3 µM | 32.7 | 54 | 45.6 µM | > 100 | 46.6 µM | 26 µM | 33.1 µM | 54.6 µM | > 100 µM | – | – | – | – | – | – |
| Cc1cc(Cc2c(F)c(F)c(Cc3cc(C)no3)c(F)c2F)on1 | > 100 µM | > 100 | > 100 | > 100 µM | > 100 | > 100 µM | > 100 µM | 76.7 µM | > 100 µM | > 100 µM | – | – | – | – | – | – |
| CC(=O)/C=C/C=C(\C)CC/C=C(\C)CC(C)C | 97.3 µM | 83.3 | 30.6 | 68.6 µM | > 100 | 65.8 µM | 46.8 µM | 98.8 µM | > 100 µM | 60 µM | – | – | – | – | – | – |
| O=c1[nH]c(=O)n(C2OC(COP(=O)(O)OP(=O)(O)O)C(O)C2O)cc1F (stereo unspecified) | 7.09 µM | > 50 | > 50 | 28.6 µM | > 44.1 | > 50 µM | 17.2 µM | > 50 µM | > 50 µM | > 50 µM | – | – | – | – | – | – |
| CCOC(=O)C(C)(C)Oc1ccc2c(=O)cc(-c3ccccc3)oc2c1 | 37.7 µM | > 100 | 54.8 | 47 µM | > 100 | 51.4 µM | 38.2 µM | 57.6 µM | > 100 µM | 31.2 µM | – | – | – | – | – | – |
| CC1(O)C=CC2CCC1C2O (stereo unspecified) | 75.5 µM | > 100 | > 100 | > 100 µM | > 100 | > 100 µM | > 100 µM | > 100 µM | > 100 µM | > 100 µM | – | – | – | – | – | – |
| C#CCNC(Cc1cnc[nH]1)C(=O)O (stereo unspecified) | > 100 µM | > 100 | > 100 | > 100 µM | > 100 | > 100 µM | > 100 µM | > 100 µM | > 100 µM | > 100 µM | – | – | – | – | – | – |
| O=C(/C=C/c1ccc(-c2ccccc2[N+](=O)[O-])o1)NCc1ccc(C(=O)NCCc2ccccc2)cc1 | > 100 µM | > 100 | > 100 | > 100 µM | > 100 | > 100 µM | > 100 µM | > 100 µM | > 100 µM | > 100 µM | – | – | – | – | – | – |
| OC1CCCC1C(O)(C(F)(F)F)C(F)(F)F (stereo unspecified) | > 100 µM | > 100 | > 100 | > 100 µM | > 100 | > 100 µM | > 100 µM | > 100 µM | > 100 µM | > 100 µM | – | – | – | – | – | – |
| O=C(C1=C(C(=O)c2ccccc2)SC2(S1)C(C(=O)c1ccccc1)=C(C(=O)c1ccccc1)Sc1c2ssc1=O)c1ccccc1 | > 100 µM | 31.2 | > 100 | 55 µM | 59.2 | > 100 µM | 57.6 µM | > 100 µM | > 100 µM | > 100 µM | – | – | – | – | – | – |
| CCC1(CC)C(=O)CC[C@@]2(C)C1=CC[C@H]1[C@@H]3CC[C@H](O)[C@@]3(C)CC[C@@H]12 | 29.6 µM | 44.6 | > 100 | 87.5 µM | > 100 | 56.5 µM | > 100 µM | > 100 µM | 41.9 µM | 82.6 µM | – | – | – | – | – | – |
| COc1ccc(/C=C/c2cc(O)cc(OC)c2)cc1 | > 100 µM | > 100 | 14.4 | > 100 µM | > 100 | > 100 µM | > 100 µM | > 100 µM | > 100 µM | > 100 µM | – | – | – | – | – | – |
| Cc1nnc2cc(C(=O)O)c3ccccc3n2c1=O | > 10 µM | > 10 | > 10 | > 10 µM | > 10 | > 10 µM | > 10 µM | > 10 µM | > 10 µM | > 10 µM | – | – | – | – | – | – |
| CCCCCc1cc2c(cc1O)CC[C@@H]1[C@@H]2CC[C@]2(C)[C@@H](O)CC[C@@H]12 | 28.9 µM | 36.1 | 31.3 | 32.6 µM | 33.6 | 43 µM | 39.5 µM | 30.5 µM | 34 µM | 43.1 µM | – | – | – | – | – | – |
| Cc1csc2c1C(=O)c1ccsc1C2=O | 16 µM | 32.5 | 3.51 | 23.4 µM | 3.46 | 11.3 µM | 3.93 µM | 3.51 µM | 35.2 µM | 2.88 µM | – | – | – | – | – | – |
| S=C(N/N=C\C=N/NC(=S)N1CCCCCC1)N1CCCCCC1 | > 100 µM | > 100 | > 100 | > 100 µM | > 100 | > 100 µM | > 100 µM | > 100 µM | > 100 µM | > 100 µM | – | – | – | – | – | – |
| CC(C)CCC[C@@H](C)[C@H]1CC[C@H]2[C@@H]3CC=C4C[C@@H](OC(=O)c5cccc6c(=O)c7ccccc7[nH]c56)CC[C@]4(C)[C@H]3CC[C@]12C | > 75 µM | > 75 | > 75 | > 75 µM | > 75 | > 75 µM | > 75 µM | > 75 µM | > 75 µM | > 75 µM | – | – | – | – | – | – |
| Nc1ccc2c(c1)C(=O)c1ccccc1-2 | > 100 µM | > 100 | > 100 | > 100 µM | > 100 | > 100 µM | > 100 µM | > 100 µM | > 100 µM | > 100 µM | – | – | – | – | – | – |
| Cc1cc(S(=O)(=O)Nc2nnc3c(C(F)(F)F)cc(Cl)cn23)c(S)cc1Cl | > 100 µM | > 100 | > 100 | > 100 µM | > 100 | > 100 µM | > 100 µM | > 100 µM | > 100 µM | > 100 µM | – | – | – | – | – | – |
| CCOc1ccc2[nH]c3c(C)c4cc[n+](C)cc4c(C)c3c2c1 | 1.62 µM and 2.43 µM | > 100 | > 100 | 0.965 µM and 2.88 µM | > 100 | 9.87 µM and 11.6 µM | 1.63 µM and 2.65 µM | 0.452 µM and 0.291 µM | 81.6 µM and > 100 µM | 13.7 µM and 27.8 µM | 11.1 µM and 48 µM | 6.05 µM and > 35.6 µM | 10.3 µM and 38.8 µM | 0.236 µM and 0.51 µM | 0.18 µM and 0.0795 µM | 9.4 µM and 26.6 µM |
| Nc1nc(Cl)cc(N=Nc2ccccc2)n1 | > 100 µM | > 100 | 35 | > 100 µM | > 100 | 97.6 µM | > 100 µM | > 100 µM | > 100 µM | > 100 µM | – | – | – | – | – | – |
| OCC1OC(n2cnc3cccnc32)CC1O (stereo unspecified) | > 100 µM | > 100 | > 100 | > 100 µM | > 100 | > 100 µM | > 100 µM | > 100 µM | > 100 µM | > 100 µM | – | – | – | – | – | – |
| CC(C)(C)N=C1CC(C)(C)c2ccccc2C(=Nc2ccccc2)S1 | > 100 µM | > 100 | > 100 | > 100 µM | > 100 | > 100 µM | > 100 µM | > 100 µM | > 100 µM | > 100 µM | – | – | – | – | – | – |
